Measured values as given in patent US12364703B2, “Homogeneous ophthalmic composition” (priority 2015, dated 2025).
Counter-ions that a name gives are not always drawn.

Experiment: LCMS and standard curve analysis of the concentration of each active ingredient in solution
Format: physicochemical
Conditions: three samples of solutions containing the three active ingredients; LCMS, standard curve
Protocol: Separate stock solutions of moxifloxacin HCI, dexamethasone, and sodium bromfenac were used as standards. Three different samples of solutions containing the three active ingredients, i.e., moxifloxacin HCI, dexamethasone, and sodium bromfenac were analyzed for the concentration of moxifloxacin in solution, the concentration of dexamethasone in solution, and the concentration of sodium bromfenac in solution.

Nc1c(CC(=O)O)cccc1C(=O)c1ccc(Br)cc1 [bromfenac sodium]
Concentration in Solution: 40.5 µg/mL

COc1c(N2C[C@@H]3CCCN[C@@H]3C2)c(F)cc2c(=O)c(C(=O)O)cn(C3CC3)c12 [moxifloxacin HCI, moxifloxacin hydrochloride]
Concentration in Solution: 5458 µg/mL
